Results from patent US10124019B2, “Compositions and their use for removing cholesterol” (Cornell University, priority 2009, dated 2018).
Where two headings read alike, the source gives them in different places.

Assays:
[1] = system: GM03123 (NPC1) cells; assay: LSO filipin assay of cholesterol accumulation, NPC1 mutant fibroblasts; format: cell-based, human
Method: (§1) FIGS. 5 A-D. Charts showing quantification of CD effects on cholesterol accumulation in NPC1 and NPC2 mutant cells. The filipin fluorescence in LSOs was measured in NPC1 (A and B) and NPC2 (C and D) mutant cells treated with either MβCD (A and C) or HPβCD (B and D) for 1-4 days.
(§2) FIG. 6. Chart comparing cholesterol accumulation as measured by the LSO assay in NPC1-defective, NPC2-defective, and apparently normal human fibroblasts. […] At the end of the experiment, cells were fixed with 1% PFA and stained with 50 μg/mL filipin. Images were acquired using an ImageXpress MICRO imaging system with a 10× objective. Quantification of filipin labeling of the LSOs was performed as described previously (Pipalia N H, Huang A, Ralph H, Rujoi M, Maxfield FR (2006) Automated microscopy screening for compounds that partially revert cholesterol accumulation in Niemann-Pick C cells. J. Lipid Res. 47:284-301).

[2] = system: human NPC1 cells; assay: Removal of cholesterol from LSOs by filipin staining and digital image analysis
Method: Graph showing the concentration and time dependence of the removal of cholesterol from LSOs of human NPC1 cells incubated with the indicated concentrations of MβCD in complete medium for 1-4 days.
Graph showing concentration of cholesterol from LSOs of NPC1 cells incubated with 0.33 mM MβCD for one hour under various conditions (i.e., no FBS, 10% FBS, and cholesterol-loaded MβCD (i.e., “MbCD/cholest.”), and these with either no chase or a 24 hour chase). At the end of the incubation, cells were rinsed thoroughly, and returned to complete medium for 24 hours.
Graph comparing the cholesterol-lowering ability of MβCD and a MβCD-dextran composition of the instant invention. Human NPC1 cells were incubated with MβCD (●) or Dextran-PEG-MbCD (O) for 39 hours. The polymers had about two MβCDs per polymer, and the concentration is the MβCD concentration.
(A) Cells were treated for 2 days with 50 μM MβCD or 50 μM MβCD conjugated to dextran fixed with paraformaldehyde, stained, and imaged. Cholesterol accumulation in LSOs was measured by quantifying filipin fluorescence. Data represent averages±SEM of one representative experiment (n=8, where n is total number of wells per condition used for quantification).
In this experiment, studies were conducted to determine the effects of MβCD on NPC1 and NPC2 cells. […] The cells were then rinsed and incubated in complete medium for 24 hours. […] To further emphasize this, the one-hour loading pulse was conducted with cholesterol-loaded MβCD, which would actually increase the cellular cholesterol during the loading period.

[3] = system: NPC1- or NPC2-deficient cell lines; details: literature study, cultured NPC1- and NPC2-deficient cells; cited from earlier work
[4] = system: GM18455 (NPC2) cells; assay: LSO filipin assay of cholesterol accumulation, NPC2 mutant fibroblasts; format: cell-based, human
Method: as §1, §2

[5] = system: NPC mutant cells; assay: BMP accumulation by anti-BMP immunofluorescence; format: cell-based, human; details: 0.9 mM CD for ≈1 day (FIG. 15)
Method: FIGS. 15 A-C. CD effects on BMP accumulation in NPC mutant cells. BMP levels were quantified using fluorescence microscopy from images obtained with a 20× objective of cells stained with anti-BMP antibody and AlexaFluor488-conjugated secondary antibody in NPC1 (A), NPC2 (B) mutant, and 1 μM U18666A-treated normal (C) cells. Cells were incubated with 0.9 mM CD for ≈1 day.

[6] = system: U18666A-treated GM05659 cells
Method: (§3) Cells were plated in 384-well assay plates at a density to produce ≈80-90% confluency by experiment completion and treated with U18666A at indicated concentrations for 24 hour before addition of various concentrations of either MβCD or HPβCD for another 24 hours, during which indicated U18666A levels were maintained. At the end of the experiment, cells were fixed with 1% PFA and stained with 50 μg/mL filipin. Images were acquired using an ImageXpressMICRO imaging system with a 10× objective. […] (A) Cholesterol accumulation, as measured by the LSO filipin assay, at different concentrations of U18666A. MβCD (B) and HPβCD (C) LSO filipin dose-response curves at three different U18666A concentrations. […] Data represent averages±SEM of two independent experiments (n=12 for control and n=6 for treated, where n is total number of wells per condition used for quantification).

[7] = system: npc1−/− mice; details: cited from earlier work
[8] = system: U18666A-treated GM05659 cells; assay: LSO filipin assay in U18666A-treated apparently normal fibroblasts; details: read-out: EC50 (μM), 50% reduction in LSO filipin, cyclodextrin 1 day
Method: as §3

[9] = system: NPC1 and NPC2 mutant cells; assay: LSO filipin staining after cyclodextrin treatment, withdrawal and acute treatment; format: cell-based, human; details: for cholesterol accumulation detected by filipin labeling: 300 μM CD for 1 day (FIG. 4); for LSO values one more day after CD removal versus fixed immediately / LSO cholesterol accumulation after three days without extracellular CD: 1 day treatment; for LSO values one more day after CD removal versus fixed immediately: then 1 day in growth medium without CD; for LSO cholesterol accumulation after three days without extracellular CD: then three days in serum containing medium; for level to which LSO cholesterol accumulation is reduced: low micromolar concentrations, 1-4 days (FIG. 5)
Method: FIG. 4. Micrographs showing the effect of CDs on cholesterol accumulation in NPC1- and NPC2-deficient cells. (A) Background and shading corrected images of untreated (a and b), MβCD-treated (c and d), or HPβCD-treated (e and f) GM03123 NPC1 cells (a, c, and e) or GM18455 NPC2 (b, d, and f) mutant cells. NPC mutant cells were treated with 300 μMCD for 1 day. (B) Untreated, apparently normal GM05659 cells, shown for comparison. (Scale bars, 100 μm.)
FIGS. 8 A-D. Charts showing persistence of CD effects after treatment. NPC1 (A and B) and NPC2 (C and D) treated with various concentrations of MβCD (A and C) and HPβCD (B and D) for 1 day and then fixed (0 days after 24 h treatment), or rinsed extensively, and allowed to grow in normal growth medium for up to three additional days after CD removal. Quantification of LSO filipin fluorescence power is shown.
FIG. 9 A, B. Filipin micrographs showing acute cyclodextrin effects on cholesterol accumulation in NPC1- and NPC2-deficient cells. Background and shading corrected images of untreated control (panels a-c), 0 h after treatment (panels d-f), or 24 h after treatment (panels g-i) for NPC1 (A) or NPC2 (B) mutant cells were obtained as in FIG. 6. […] (Scale bars, 100 μm.)
FIGS. 10 A-D. Short-term MβCD treatment. […] Cells were either fixed immediately or rinsed extensively and returned to growth medium for 24 hours. Quantification of LSO filipin fluorescence power is shown (A and C). Numeric data represent averages±SEM of three independent experiments normalized to control (untreated) average value for each experiment. *P<0.0001 vs. control (n=12, where n is total number of wells used for quantification). Filipin images of NPC1 (B) or NPC2 (D) mutant cells treated with MβCD/cholesterol are shown. (Scale bars, 100 μm.)
To determine whether the CD-mediated decrease in cholesterol accumulation would be sustained after the compound has been removed from the culture medium, NPC1 and NPC2 mutant cells were treated for 1 day with varying concentrations of MβCD or HPβCD (FIG. 8). The cells were then washed extensively to remove the compounds and returned to growth medium for up to three days.
To determine whether the reduction of free cholesterol in LSOs of NPC-defective cells resulted from extraction of cholesterol by CD from the PM or from inside the LSOs, this experiment acutely treated cells for one hour with MβCD in medium without serum (to extract cholesterol from the PM), MβCD in medium plus 10% FBS (to exchange cholesterol between serum lipoproteins and the PM (V. M. Atger, et al. (1997), J. Clin. Invest., 99:773-780)), or MβCD loaded with cholesterol (≈5:1 (MβCD/cholesterol) ratio) to overload cells with cholesterol.

[10] = system: NPC1- or NPC2-deficient cell lines; assay: Cholesterol esterification by ACAT (BODIPY-C12); format: cell-based, human; details: S58-035 at 10 μg/mL
Method: FIG. 12 A, B. Charts showing cholesterol esterification by ACAT. Cyclodextrin effects on cholesterol esterification in NPC1 (A) and NPC2 (B) mutant cells. Cells were treated for 1 hour with 3 mM MβCD or HPβCD and then allowed to recover in growth medium for 16 hours. Cells were then incubated with 3 μM 4,4-difluoro-4-bora-3a,4a-diaza-s-indacene-dodecanoic acid (BODIPY-C12) for 6 hours. The ratio of cholesteryl-BODIPY-C12 ester (CE)/BODIPY-C12 acid (FA) after TLC separation was measured and normalized to the average control value. ACAT inhibitor S58-035 was added, where indicated, at 10 μg/mL. For NPC1-defective cells, the average ratio was 0.110±0.007, which corresponded to 3.73±0.22 fmol CE formed per μg cell protein during 6 hours. Corresponding values for NPC2-defective cells were 0.089±0.003 and 2.50±0.24 fmol/μg.
To measure cholesterol levels within the endoplasmic reticulum in response to brief CD treatments, cholesterol esterification was measured by ACAT (FIG. 12). Increased esterification of cholesterol was observed several hours after a short (1-hour) CD treatment of NPC1- or NPC2-deficient cell lines. […] Corresponding reductions in cholesterol accumulation upon MβCD treatment, as measured by the LSO filipin assay, are shown in FIG. 13.

[11] = system: NPC1 human fibroblast GM18453; NPC2 human fibroblast GM18445; assay: HDAC inhibitor effect on LSO cholesterol, 48-hour treatment; format: cell-based; details: 37 nM
Method: Cells were treated in complete medium for two days (48 hours). The dashed horizontal line is 3SD below the mean for untreated cells. (A) results for NPC1 human fibroblast GM18453, (B) results for NPC2 human fibroblast GM18445.
Each data point in the plot is representative of a total of 32 images from two independent experiments. The standard deviation (SD) for DMSO is 0.07, error bar=SE. The dotted line represents the DMSO control.

[12] = system: NPC1 fibroblast GM03123; assay: HDAC inhibitor dose and time dependence on LSO cholesterol; format: cell-based, human
From the text: FIG. 19. Plots showing the dose and time dependence for each of the studied HDACi compounds as a function of time on NPC1 fibroblast GM03123.
Dose and time dependence for each of the studied HDACi compounds as a function of time on NPC1 fibroblast GM03123 are shown in the plots of FIG. 19. Each data point in the plot is representative of a total of 32 images from two independent experiments. The SD for DMSO is 0.07, error bar=SE. The dotted line represents the DMSO control.

[13] = read-out: EC50 (μM), 50% reduction in LSO filipin, 1 day of treatment
[14] = read-out: EC50 (μM), 50% reduction in LSO filipin, 2 days of treatment
[15] = read-out: EC50 (μM), 50% reduction in LSO filipin, 3 days of treatment
[16] = read-out: EC50 (μM), 50% reduction in LSO filipin, 4 days of treatment

EC50 [6]	Compound	EC50 [1, 13]	EC50 [1, 14]	EC50 [1, 15]	EC50 [1, 16]	EC50 [4, 13]	EC50 [4, 14]	EC50 [4, 15]	EC50 [4, 16]	BMP accumulation [5]	EC50 ([8]; U18666A 1,000 nM)	EC50 ([8]; U18666A […])	cholesterol accumulation detected by filipin labeling [9]	LSO values one more day after CD removal versus fixed immediately [9]	LSO cholesterol accumulation after three days without extracellular CD [9]	level to which LSO cholesterol accumulation is reduced [9]	other results
17.4 µM	hydroxypropyl-βCD [HPβCD]	3.16 µM	3.77 µM	4.18 µM	5.44 µM	272 µM	20.8 µM	16.9 µM	11.5 µM	significantly reduced BMP accumulation	185 µM	69.9 µM	reduced cholesterol accumulation	further decrease in LSO values	significant reduction	near-normal levels	times higher concentrations required to achieve the same effect as MβCD ([2]; relative to MβCD): 3-5 times; ACAT-mediated esterification of cholesterol [3]: increased ACAT-mediated esterification of cholesterol; glycosphingolipid storage ([7]; repeated injections): clearance of various glycosphingolipids; lifespan ([7]; repeated injections): further prolongation of lifespan; lifespan ([7]; single injections): can extend their lifespan
–	CCCCCCCCCC[Si](C)(C)CCC(=O)NC(Cc1ccc(C)cc1)c1ccccc1 (centres unmarked) [S58-035]	–	–	–	–	–	–	–	–	–	–	–	–	–	–	–	effect on CD-induced increase in cholesterol esterification [10]: inhibited
–	CC(/C=C/C(=O)NO)=C\[C@@H](C)C(=O)c1ccc(N(C)C)cc1 [trichostatin A]	–	–	–	–	–	–	–	–	–	–	–	–	–	–	–	reduction of cholesterol in the LSOs [11]: significantly effective
6.2 µM	methyl β-cyclodextrin [MβCD]	2.22 µM	1.1 µM	0.98 µM	1.08 µM	40.4 µM	3.19 µM	2.8 µM	1.69 µM	significantly reduced BMP accumulation	48.1 µM	18.9 µM	reduced cholesterol accumulation	further decrease in LSO values	significant reduction	near-normal levels	cholesterol in LSOs after 24 hr chase ([2]; 1 hour pulse, 0.33 mM, then 24 hours in complete medium): significant reduction; time for the effect to reach steady state ([2]; FIG. 1): about 2 days; EC50 ([2]; read-out: concentration giving half-maximal effect on removal of cholesterol from LSOs, complete medium, 1-4 days (FIG. 1)): 2 to 3 µM; concentration giving effects equivalent to those of HPβCD ([9]; relative to HPβCD): approximately three-fold lower concentrations
–	O=C(CCCCCCC(=O)Nc1ccccc1)NO [SAHA, suberoylanilide hydroxamic acid]	–	–	–	–	–	–	–	–	–	–	–	–	–	–	–	reduction of cholesterol in the LSOs [12]: somewhat effective; reduction of cholesterol in the LSOs ([12]; 10 μM, other experiments (not shown)): much more effective
–	MβCD-NH-(PEG)3-CONH-aminodextran [MβCD-dextran]	–	–	–	–	–	–	–	–	–	–	–	–	–	–	–	reversal of cholesterol accumulation in LSOs (filipin) ([2]; 50 μM MβCD conjugated to dextran, 2 days (FIG. 11A)): can also reverse cholesterol accumulation; cholesterol-lowering in LSOs ([2]; 39 hours, about two MβCDs per polymer (FIG. 3)): significant effect
